Test results as given in patent publication US6218519A, “Compounds and methods for the selective treatment of cancer and bacterial infections” (Pro-Neuron, Inc., priority 1996, dated 2001).
Where a name gives a salt, the structure may show the parent alone. Read-outs that look alike come from different tables or passages of the source.

Experiments:
[1] = target: β-Glucuronidase (E. Coli) (EC 3. 2. 1. 31) (Escherichia coli, UniProt P05804); test: in vitro; conditions: beta-glucuronidase, phosphate buffer, pH 7.4, half-life for the disappearance of 10b
Chain of β-Glucuronidase (E. Coli) (EC 3. 2. 1. 31) (P05804 whole entry): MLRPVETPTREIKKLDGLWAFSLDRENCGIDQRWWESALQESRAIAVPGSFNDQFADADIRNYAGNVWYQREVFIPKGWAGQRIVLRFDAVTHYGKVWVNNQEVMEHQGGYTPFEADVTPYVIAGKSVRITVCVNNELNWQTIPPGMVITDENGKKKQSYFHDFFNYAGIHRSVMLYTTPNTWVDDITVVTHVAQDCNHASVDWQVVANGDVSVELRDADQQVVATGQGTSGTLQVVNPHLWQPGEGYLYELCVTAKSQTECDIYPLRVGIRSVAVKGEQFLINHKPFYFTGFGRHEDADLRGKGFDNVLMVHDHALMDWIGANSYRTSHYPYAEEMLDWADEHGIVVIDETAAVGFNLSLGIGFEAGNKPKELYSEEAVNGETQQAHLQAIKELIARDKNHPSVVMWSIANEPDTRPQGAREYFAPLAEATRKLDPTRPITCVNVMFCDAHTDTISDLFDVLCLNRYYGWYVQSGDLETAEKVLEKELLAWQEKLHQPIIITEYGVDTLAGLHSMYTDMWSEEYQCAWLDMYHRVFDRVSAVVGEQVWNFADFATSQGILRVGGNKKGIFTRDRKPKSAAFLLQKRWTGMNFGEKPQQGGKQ

A-375 (human melanoma) = test: Growth inhibition studies, crystal violet staining, 72 hr; type: cell-based; conditions: A-375, 72 h
Excerpt: Growth Inhibition Studies. […] cell lines: A-375 (human melanoma), LSl174T (colon carcinoma), ME 180 (cervical carcinoma), SK-OV-3 (ovarian carcinoma), and BT-474 (breast carcinoma) were routinely grown in […] Minimal Essential Medium (MEM, Gibco Inc.) containing 10% fetal bovine serum albumin (Atlanta Biologics). Cells were passaged weekly by trypsinization (Gibco) followed by plating at reduced density (50,000 cells/ml). They were routinely tested and found to be free of mycoplasma contamination. Cells were harvested by trypsinization and plated in 96 well plates at a density of 5,000 per well in 100 μl of MEM culture media. Cells were allowed to adhere by incubation for 24 hr at 37° C. in humidified 5% CO2. The wells containing log-phase cells were treated with complete MEM containing serial dilutions of N-[(4"RS-4"-Ethoxy-4"-β-D-glucopyranurongloxy)butyl]daunorubicin (sodium salt) 10b at concentrations ranging from 10^-5 to 10^-14 M Each well also contained a 50-fold unit excess of β-glucuronidase (i.e., 50 units of enzyme per βmole of substrate). Control reactions were run with 10b in the absence of β-glucuronidase, daunomycin alone, and daunomycin in the presence β-glucuronidase. […] Cell-bound dye was solubilized with Sorenson's Buffer (0.1 M sodium citrate, pH 4.2-ethanol, 1:1, v/v) and the wells were read on an ELISA microplate autoreader at 540 nm. […]

carcinoma cells = conditions: glucuronide versus parent epirubicin; cited from earlier work

CCOC(CCCN[C@H]1C[C@H](O[C@H]2C[C@](O)(C(C)=O)Cc3c(O)c4c(c(O)c32)C(=O)c2c(OC)cccc2C4=O)O[C@@H](C)[C@H]1O)O[C@@H]1O[C@H](C(=O)O)[C@@H](O)[C@H](O)[C@H]1O (stereo partly drawn) [Compound 10b, N-[(4"RS)-4"-Ethoxy-4"-(β-D-glucopyranuronyloxy)butyl]daunorubicin (Sodium salt)]
half-life at 100 µM [1]: 8.1 h | half-life at 100 µM ([1]; 10-fold enzyme excess (10 units of enzyme per µmol of substrate), 0.05 M potassium phosphate buffer pH 7.4): 6.9 h | half-life at 100 µM ([1]; 20-fold enzyme excess (20 units of enzyme per µmol of substrate), 0.05 M potassium phosphate buffer pH 7.4): 2 h | IC50 (A-375 (human melanoma); read-out: IC50 (drug concentration that inhibited cell growth by 50%), A375 cell line, in the absence of β-glucuronidase, 72 hr): 200 ng/mL | IC50 (A-375 (human melanoma); read-out: IC50 (drug concentration that inhibited cell growth by 50%), A375 cell line, in the presence of glucuronidase (50 units of enzyme per µmole of substrate), 72 hr): 0.02 ng/mL

COc1cccc2c1C(=O)c1c(O)c3c(c(O)c1C2=O)C[C@@](O)(C(=O)CO)C[C@@H]3O[C@H]1C[C@H](N)[C@@H](O[C@@H]2O[C@H](C(=O)O)[C@@H](O)[C@H](O)[C@H]2O)[C@H](C)O1 [glucuronide of epirubicin]
detoxification of the parent drug (carcinoma cells): up to 1000 fold
